Laboratory results published in patent US12202835B2, “Substituted aromatic ring-linked dioxinoquinazolines and dioxinoquinolines as kinase inhibitors” (BEIJING SCITECH-MQ PHARMACEUTICALS LIMITED, priority 2018, dated 2025).

How the values were obtained:
MER kinase = MER kinase (Homo sapiens (Human), UniProt Q12866); experiment: Assay of small molecular compounds for inhibiting the activity of MER kinase (LANCE TR-FRET); type: biochemical
In short: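 LANCE TR-FRET readout of ULight-poly GT phosphorylation by MER kinase; compound final range 0.042-2500 nM, 3-fold steps, 5 min enzyme preincubation. Reaction 60 min at room temperature in the dark with substrate/ATP (4× at 200 nM/20 μM), 1% DMSO, then stopped and developed 60 min; IC50 by curve fit.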

Ba/F3 LMNA-NTRK1 cells = experiment: Assay for inhibiting the proliferation of Ba/F3 LMNA-NTRK1 cells (CCK-8); type: cell-based; conditions: Mus musculus, BaF3
In short: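 Viability was read as absorbance at 450 nm following 1–2 h CCK-8 incubation at 37 °C, relative to control and blank wells.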

TRKA kinase = TRKA kinase (Homo sapiens (Human), UniProt P04629); experiment: Assay of small molecular compounds for inhibiting the activity of TRKA kinase (LANCE TR-FRET); type: biochemical
In short: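 TRKA (supplied as 2 nM 2× solution) was pre-reacted with compounds for 5 min at room temperature before a 4× ULight-TK peptide/ATP mix (400 nM/40 μM) started the 60-min dark reaction at 1% DMSO. After stop and 60-min detection, TR-FRET was read.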

Sequence of TRKA kinase (P04629 33-796): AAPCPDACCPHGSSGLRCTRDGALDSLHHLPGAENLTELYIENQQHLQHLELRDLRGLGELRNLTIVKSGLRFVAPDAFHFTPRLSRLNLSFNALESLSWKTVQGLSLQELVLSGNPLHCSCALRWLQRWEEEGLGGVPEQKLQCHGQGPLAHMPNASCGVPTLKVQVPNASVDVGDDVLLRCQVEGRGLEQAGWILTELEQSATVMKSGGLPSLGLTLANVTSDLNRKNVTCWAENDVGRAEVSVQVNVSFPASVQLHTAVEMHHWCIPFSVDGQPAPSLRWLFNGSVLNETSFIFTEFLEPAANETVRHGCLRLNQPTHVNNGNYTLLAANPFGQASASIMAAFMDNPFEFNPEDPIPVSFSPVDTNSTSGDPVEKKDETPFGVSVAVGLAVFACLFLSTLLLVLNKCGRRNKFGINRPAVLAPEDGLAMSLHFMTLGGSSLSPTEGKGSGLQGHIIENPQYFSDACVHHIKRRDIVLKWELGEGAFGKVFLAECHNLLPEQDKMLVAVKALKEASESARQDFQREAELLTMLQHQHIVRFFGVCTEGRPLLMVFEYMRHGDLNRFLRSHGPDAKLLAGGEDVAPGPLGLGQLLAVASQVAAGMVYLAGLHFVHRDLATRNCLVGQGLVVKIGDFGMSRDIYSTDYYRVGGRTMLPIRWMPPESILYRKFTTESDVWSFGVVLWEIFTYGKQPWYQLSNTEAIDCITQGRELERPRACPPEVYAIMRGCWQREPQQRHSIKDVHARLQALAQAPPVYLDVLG
Sequence of MER kinase (Q12866 21-999): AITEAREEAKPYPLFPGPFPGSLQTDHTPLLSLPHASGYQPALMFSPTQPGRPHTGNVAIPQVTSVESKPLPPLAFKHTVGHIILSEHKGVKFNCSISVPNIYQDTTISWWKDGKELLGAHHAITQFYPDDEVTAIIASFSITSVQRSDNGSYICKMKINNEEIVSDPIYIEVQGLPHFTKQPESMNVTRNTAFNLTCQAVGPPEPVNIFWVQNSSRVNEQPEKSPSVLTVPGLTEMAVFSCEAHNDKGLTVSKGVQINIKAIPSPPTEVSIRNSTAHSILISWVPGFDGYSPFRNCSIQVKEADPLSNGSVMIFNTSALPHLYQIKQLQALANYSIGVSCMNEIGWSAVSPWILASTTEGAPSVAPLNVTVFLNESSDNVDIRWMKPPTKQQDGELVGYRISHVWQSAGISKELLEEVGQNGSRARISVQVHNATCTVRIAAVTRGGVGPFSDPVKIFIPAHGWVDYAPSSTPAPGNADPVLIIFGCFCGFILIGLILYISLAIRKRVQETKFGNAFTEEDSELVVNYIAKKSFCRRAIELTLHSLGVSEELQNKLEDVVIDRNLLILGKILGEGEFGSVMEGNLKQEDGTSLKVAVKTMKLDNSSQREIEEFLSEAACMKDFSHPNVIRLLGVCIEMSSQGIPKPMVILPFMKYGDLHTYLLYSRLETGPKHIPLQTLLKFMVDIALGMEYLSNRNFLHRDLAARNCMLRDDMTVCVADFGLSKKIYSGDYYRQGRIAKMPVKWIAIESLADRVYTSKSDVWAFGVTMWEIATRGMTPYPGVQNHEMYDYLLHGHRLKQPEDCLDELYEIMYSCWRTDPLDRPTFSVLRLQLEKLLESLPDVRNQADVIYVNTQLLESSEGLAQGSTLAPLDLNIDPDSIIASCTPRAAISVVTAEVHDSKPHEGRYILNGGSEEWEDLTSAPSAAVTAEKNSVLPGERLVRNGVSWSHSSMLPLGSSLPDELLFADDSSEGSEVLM

| IC50 (MER kinase) [µM] | IC50 (Ba/F3 LMNA-NTRK1 cells) [µM] | IC50 (TRKA kinase) [µM] | Structure (SMILES) |
| --- | --- | --- | --- |
| ≤ 0.05 | < 0.05 | < 0.05 | COc1ccn(-c2ccc(F)cc2)c(=O)c1C(=O)Nc1ccc(Oc2ccnc3cc(OCCCN4CCCCC4)c4c(c23)OCCO4)cc1Cl [Example 136, N-(2-chloro-4-((5-((3-piperidin-1-yl)propoxy)-2,3-dihydro-[1,4]dioxino[2,3-f]quinolin-10-yl)oxy)phenyl)-1-(4-fluorophenyl)-4-methoxy-2-oxo-1,2-dihydropyridine-3-carboxamide] |
| ≤ 0.05 | < 0.05 | < 0.05 | COc1cc2nccc(Oc3cc(C)c(NC(=O)c4cn(C)c(=O)n(-c5ccc(F)cc5)c4=O)cc3F)c2c2c1OCCO2 [Example 177, N-(5-fluoro-4-((5-methoxy-2,3-dihydro-[1,4]dioxino[2,3-f]quinolin-10-yl)oxy)-2-methylphenyl)-3-(4-fluorophenyl)-1-methyl-2,4-dioxo-1,2,3,4-tetrahydropyrimidine-5-carboxamide] |
| ≤ 0.05 | < 0.05 | < 0.05 | CCOc1ccn(-c2ccc(F)cc2)c(=O)c1C(=O)Nc1ccc(Oc2ccnc3cc(OCCCC#N)c4c(c23)OCCO4)cc1Cl [Example 134, N-(2-chloro-4-((5-(3-cyanopropoxy)-2,3-dihydro-[1,4]dioxino[2,3-f]quinolin-10-yl)oxy)phenyl)-1-(4-fluorophenyl)-4-ethoxy-2-oxo-1,2-dihydropyridine-3-carboxamide] |
| ≤ 0.05 | < 0.05 | < 0.05 | COCCOc1cc2nccc(Oc3cc(C)c(NC(=O)c4cn(C)c(=O)n(-c5ccc(F)cc5)c4=O)cc3F)c2c2c1OCCO2 [Example 179, N-(5-fluoro-4-((5-(2-methoxyethoxy)-2,3-dihydro-[1,4]dioxino[2,3-f]quinolin-10-yl)oxy)-2-methylphenyl)-3-(4-fluorophenyl)-1-methyl-2,4-dioxo-1,2,3,4-tetrahydropyrimidine-5-carboxamide] |
| ≤ 0.05 | < 0.05 | < 0.05 | COc1ccn(-c2ccc(F)cc2)c(=O)c1C(=O)Nc1ccc(Oc2ccnc3cc(OCCCN4CCOCC4)c4c(c23)OCCO4)c(F)c1 [Example 21, N-(3-fluoro-4-((5-(3-morpholinopropoxy)-2,3-dihydro-[1,4]dioxino[2,3-f]quinolin-10-yl)oxy)phenyl)-1-(4-fluorophenyl)-4-methoxy-2-oxo-1,2-dihydropyridine-3-carboxamide] |
| ≤ 0.05 | < 0.05 | < 0.05 | CCOc1ccn(-c2ccc(C)cc2)c(=O)c1C(=O)Nc1ccc(Oc2ccnc3cc(OC)c4c(c23)OCCO4)c(F)c1 [Example 112, N-(3-fluoro-4-((5-methoxy-2,3-dihydro-[1,4]dioxino[2,3-f]quinolin-10-yl)oxy)phenyl)-2-oxo-4-ethoxy-1-(4-methylphenyl)-1,2-dihydropyridin-3-carboxamide] |
| ≤ 0.05 | < 0.05 | < 0.05 | CCOc1cc2nccc(Oc3ccc(NC(=O)c4c(OCC)ccn(-c5ccc(F)cc5)c4=O)c(Cl)c3)c2c2c1OCCO2 [Example 130, N-(2-chloro-4-((5-ethoxy-2,3-dihydro-[1,4]dioxino[2,3-f]quinolin-10-yl)oxy)phenyl)-1-(4-fluorophenyl)-4-ethoxy-2-oxo-1,2-dihydropyridine-3-carboxamide] |
| – | < 0.05 | < 0.05 | CCn1cc(C(=O)Nc2ccc(Oc3ccnc4cc(OCCOC)c5c(c34)OCCO5)cc2)c(=O)n(-c2ccc(F)cc2)c1=O [Example 148, N-(4-((5-(2-methoxyethoxy)-2,3-dihydro-[1,4]dioxino[2,3-f]quinolin-10-yl)oxy)phenyl)-3-(4-fluorophenyl)-1-ethyl-2,4-dioxo-1,2,3,4-tetrahydropyrimidine-5-carboxamide] |
